{
  "source": "paper PMC6133161",
  "about": "“Thiazoles with cyclopropyl fragment as antifungal, anticonvulsant, and anti-Toxoplasma gondii agents: synthesis, toxicity evaluation, and molecular docking study” (Medicinal Chemistry Research, 2018)",
  "system": "all tested strains of Candida",
  "test": "Antifungal screening, all strains",
  "type": "cell-based",
  "source_text": "The examined compounds 3a–3j were screened in vitro for antibacterial and antifungal activities using the broth microdilution method according to European Committee on Antimicrobial Susceptibility Testing (EUCAST) (EUCAST [2003]) and Clinical and Laboratory Standards Institute guidelines (CLSI [2012]) against reference strains of microorganisms from American Type Culture Collection (ATCC), including fungi belonging to yeasts (Candida albicans ATCC 2091, Candida albicans ATCC 10231, Candida parapsilosis ATCC 22019 and Candida krusei ATCC 14243).\nIn the study of antifungal activity of the compounds 3a–3j, 15 clinical strains of different species of yeasts from Candida species, namely C. albicans, C. dubliniensis C. famata, C. inconspicua, C. krusei, C. tropicalis, C. glabrata, C. lambica, C. kefyr, C. lusitaniae, C. parapsilosis, C. guilliermondii, C. lusitaniae, C. pulcherrima and C. sake were also used. […] After incubation, the MIC was assessed spectrophotometric as the lowest concentration of the samples showing complete fungal growth inhibition. […] MFC was determined by removing the culture using for MIC determinations from each well and spotting onto appropriate agar medium. […] The lowest compounds concentration with no visible growth observed was assessed as a fungicidal concentration. […]",
  "data": [
    {"smiles": "FC(F)(F)c1ccc(-c2csc(N/N=C/C3CC3)n2)cc1", "note": "[Compound 3e, (E)-2-(2-(Cyclopropylmethylene)hydrazinyl)-4-(4-(trifluoromethyl)phenyl)thiazole]", "values": [
      {"measurement": "antifungal activity", "value": "inactive"}
    ]}
  ]
}
